Measured values as given in patent US12502388B2, “Lanthionine synthetase C-like 2-based therapeutics” (NImmune Biopharma, Inc., priority 2014, dated 2025).
“Also recorded” adds a separate entry of the source.

Key:
LANCL2 = molecular target: T1, LANCL2 (Homo sapiens, UniProt Q9NS86); test: Surface plasmon resonance (BIACORE T200) binding to immobilized LANCL2; conditions: for Kd: unit inferred, read-out: SPR KD value
T1 sequence (Q9NS86 1-450): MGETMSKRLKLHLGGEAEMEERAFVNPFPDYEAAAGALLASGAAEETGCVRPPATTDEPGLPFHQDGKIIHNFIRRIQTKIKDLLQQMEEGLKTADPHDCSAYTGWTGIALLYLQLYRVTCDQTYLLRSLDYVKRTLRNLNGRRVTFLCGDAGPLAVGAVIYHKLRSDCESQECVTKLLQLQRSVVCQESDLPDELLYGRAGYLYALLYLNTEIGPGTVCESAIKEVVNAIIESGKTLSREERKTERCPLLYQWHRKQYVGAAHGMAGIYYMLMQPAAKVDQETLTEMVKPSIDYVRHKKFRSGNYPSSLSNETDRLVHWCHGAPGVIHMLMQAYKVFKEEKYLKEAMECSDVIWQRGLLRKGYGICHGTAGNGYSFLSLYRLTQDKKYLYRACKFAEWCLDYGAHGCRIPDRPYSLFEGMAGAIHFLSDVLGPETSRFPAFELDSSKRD
From the text: Kinetic determination of LANCL2-small molecule interaction. […] Data were generated in a dose dependent (5-8 titration points) manner in triplicate, and analyzed to determine binding model (Langmuir, conformational shift, etc.), real time associated and disassociation constants, and equilibrium dissociation constant. SPR technology allowed validation of specific LANCL2-phytochemical interactions as well as to gain gold-standard insight into mechanism and rate of binding. The experiments were performed on carboxymethyldextran (CM5) sensor chips by covalently attaching LANCL2 to by amine coupling. Flow cells 1 and 2 of the sensor chip were activated for 720 sec at 10 μl/min with of 1:1 mixture of 0.1 M N-hydroxysuccinimide (NHS) and 0.5 M 1-ethyl-3-(−3-dimethylaminopropyl)-carbodiimide hydrochloride (EDC). Stock LANCL2 (0.41 mg/mL) was diluted to 8.2 μg/mL (1:50 dilution) in 10 mM sodium acetate, pH 5.0 and injected over the activated flow cell 2 surface for 1000 sec at a flow rate of 10 μl/min. After the capture of LANCL2 on flow cell 2 (11000 RU), surfaces of flow cells 1 and 2 were deactivated by injecting 1M ethanolamine for 720 sec at 10 μl/min. The running buffer was 25 mM MOPS containing 0.05% T-20 and 0.15 M NaCl, pH 6.5. […] Each sample was injected for 60 sec (contact time) followed by a dissociation time of 60 sec at a flow rate of 100 μL/min. A stabilization time of 180 sec was used before the next injection. Data was analyzed with BIACORE™ T200 Evaluation Software (version 1) to determine the affinity binding constant (KD) using a 1:1 binding model.
We immobilized purified recombinant LANCL2 protein on BIACORE™ sensor chips and injected small molecules over the protein surface using the microfluidic system of the instrument. Changes in the total mass on chip surface were measured, which corresponds to the small binding to the protein. […] These fast interactions are beyond the technical abilities of the instrument. Therefore, reliable association rate constant (ka) and dissociation rate constant (kd) were not determined. The equilibrium dissociation constant (KD) is commonly used to describe the affinity between a ligand and a protein, such as how tightly a ligand binds to a particular protein. Ligand-protein affinities are influenced by non-covalent intermolecular interactions between the two molecules such as hydrogen bonding, electrostatic interactions, hydrophobic and Van der Waals forces. By plotting the equilibrium binding level against the compound concentration, we were able to measure the steady state affinity (KD) for each interaction (FIG. 8, panels B and D).
In this case we also immobilized purified recombinant LANCL2 protein on BIACORE™ sensor chips and injected small molecules over the protein surface using the microfluidic system of the instrument. Changes in the total mass on chip surface were measured, which corresponds to the small binding to the protein. […] This longer binding can potentially impact the activation of the LANCL2 pathway by triggering more efficacious anti-inflammatory and anti-diabetic and other therapeutic responses.

[1] = tested on: C57BL/6J mice with DSS colitis
Method: Mice. […] All mice were maintained in animal facilities.
DSS-induced colitis. Colitis was induced in C57BL/6J mice by administration of 5% (w/v) dextran sodium sulfate (DSS; molecular weight 42 kDa; ICN Biochemicals, Aurora, OH) added to the drinking water. Colonic inflammation was assessed 7 days after DSS treatment. […] DSS-treated, vehicle-treated mice, and iv. […] Twelve mice were included in each group.
Quantitative Real-Time PCR. […] Primers were designed using Oligo 6 software.

[2] = tested on: IL-10-/- mice with chronic colitis
[3] = tested on: RAG2-/- mice transferred with naive CD4+ T cells
[4] = tested on: C57BL/6 mice fed a high-fat diet
[5] = tested on: mice infected with influenza virus
Method: Intranasal infection of mice with influenza virus. Mice were anesthetized with 2-5% isofluorane using a vaporizer station, and 50 μL of virus dilution at 10^3 TCID50 was administered through the nostrils (25 μL each one). Mice were then placed in their cages and watched for recovery of anesthesia.
This procedure caused no pain or distress.
Monitoring of mice and disease activity and weighing. Mice were monitored once daily after the infection (or every 4 hours if they developed severe clinical signs of disease equivalent to disease score 2) and were euthanized prior to the planned endpoint if they developed significant signs of illness as measured by weight loss (i.e., 25% gradual loss of initial body weight), dehydration, loss of mobility, guarding/protection of painful area, ruffled fur (piloerection). Mice were weighed once a day for the duration of the experiment.

[6] = flow cytometry, wild-type vs LANCL2-/-
[7] = gene expression, dose-dependent
[8] = CD4+ T cells from LANCL2-/- donors
[9] = gene expression vs untreated mice

From the text for NOD mice: Mice. […] The mice were maintained in animal facilities.
(§1) Assessment of body weight and glucose tolerance.
From the text for db/db mice: Mice and dietary treatments. […] The mice were maintained in animal facilities.
as §1

O=C(c1cccc(-c2nc3ccccc3[nH]2)n1)N1CCN(C(=O)c2cccc(-c3nc4ccccc4o3)n2)CC1 [BT-15]
binding to LANCL2 by SPR in words (LANCL2): strongly bind | on and off rates in SPR sensorgrams (LANCL2): very fast on rates and very fast off rates | Kd (LANCL2): 11.4 µM

O=C(c1cccc(-c2nc3ccccc3[nH]2)n1)N1CCN(C(=O)c2cccc(-c3nc4ccccc4[nH]3)n2)CC1 [BT-11]
binding to LANCL2 by SPR in words (LANCL2): strongly bind | on and off rates in SPR sensorgrams (LANCL2): very fast on rates and very fast off rates | Kd (LANCL2): 6.3 µM | disease activity score ([1]; 5% DSS, 7-day challenge, oral BT-11 vs vehicle): significantly improved | leukocytic infiltration, mucosal thickening and epithelial erosion, dose-response ([1]; 10 to 80 mg/Kg): decreased in mice with colitis as the dose of BT-11 was increased | histopathological lesions of the colonic mucosa in LANCL2-/- mice ([1]; LANCL2-/- mice, vehicle or BT-11): the loss of LANCL2 completely abrogates the effect of BT-11 | upregulation of IL-10 secretion in colon and spleen ([1]; LANCL2 knockout mice): completely abrogated in LANCL2 knockout mice | decrease of inflammation in the gut mucosa (leukocytic infiltration, epithelial erosion, mucosal thickening) ([1]; colonic histopathology): 5 times | macroscopic lesions in spleen, MLNs and colon ([1]; day 7 post-challenge): significantly decreased | colonic IL-10 expression by flow cytometry ([1]; dose-response study): follows dose-response dynamics | FOXP3 expression in the MLN ([1]; dose-response study, flow cytometry): dose-dependent | upregulation of MHC-II+ CD11c+ granulocytes ([1]; flow cytometry, colon, wild-type vs LANCL2-/-): LANCL2-dependent | reduction of colonic TNFα expressing cells ([1]; flow cytometry, doses 10, 20, 40, 80 mg/Kg): significantly different at both 40 and 80 mg/Kg of BT-11, but not on lower doses | reduction of MCP1 in colon and MLN [1, 6]: LANCL2-dependent | secretion of TNFα in the colon [1, 6]: LANCL2-dependent | colonic gene expression of IL-10 ([1]; mouse, in vivo): upregulated | colonic gene expression of LANCL2 ([1]; mouse, in vivo): upregulated | colonic gene expression of TNFα ([1]; mouse, in vivo): down-regulated | macroscopic score in colon, MLN and spleen in LANCL2-/- mice ([1]; wild-type vs LANCL2-/- littermates): the loss of LANCL2 abrogated the decrease in macroscopic score | recovery from colitis (disease activity index) in LANCL2-/- mice ([1]; wild-type vs LANCL2-/- mice): the loss of LANCL2 prevented the mice to recover | disease activity index scores, highest dose vs lower doses ([2]; 80 mg/Kg, from week 13 to end): significantly reduced the scores in comparison to those treated with either 20 or 40 mg/Kg | macroscopic scores in spleen, MLNs and colon ([2]; 19 weeks, concentrations as low as 20 mg/Kg): greatly and significantly reduced | disease activity index scores ([2]; 20, 40 and 80 mg/Kg vs vehicle): significantly decreased | colonic histopathology (leukocytic infiltration, epithelial erosion, mucosal thickening) ([2]; H&E colon sections): significantly reduced inflammation | FOXP3-expressing CD4+ T cells in MLN and spleen ([2]; flow cytometry): upregulation | FOXP3-expressing CD4+ T cells in the colonic LP ([2]; flow cytometry): upregulation | effector Th17 cells (RORγt) in the MLN ([2]; flow cytometry): downregulated | percentage of F4/80+ macrophages in colonic lamina propria ([2]; flow cytometry): significantly decreased | percentage of MHC-II+ CD11c+ dendritic cells in colonic lamina propria ([2]; flow cytometry): significantly decreased | percentage of effector Th1 cells in colonic lamina propria ([2]; flow cytometry): significantly decreased | Th1 cells in the spleen ([2]; flow cytometry, dose response): downregulation | colonic expression of LANCL2 [2, 7]: upregulates | colonic expression of TNFα [2, 7]: downregulates | effects on disease activity and histopathology with PPARγ-/- donor CD4+ T cells ([3]; 80 mg/Kg): PPARγ independent | macroscopic scores in spleen, MLNs, colon and ileum ([3]; 80 mg/Kg, 11 weeks): greatly and significantly reduced | decrease in leukocytic infiltration, epithelial erosion and mucosal thickening in LANCL2-/- transferred recipients [3, 8]: greatly abrogated | effect on disease activity index with LANCL2-/- donor cells [3, 8]: completely abrogated with the loss of LANCL2 | macroscopic scores with loss of LANCL2 ([3]; LANCL2-/- cells transferred, 80 mg/Kg): the loss of LANCL2 completely abrogated the effect of BT-11 | IFNγ levels in total CD45+ leukocytes in the colon ([3]; flow cytometry): decrease | IL-10 in CD4+ T cells in the colonic mucosa ([3]; flow cytometry): promoting the expression | expression of IFNγ in the CD45+ population in MLN and spleen ([3]; flow cytometry): decreased | levels of FOXP3 and IL-10 in spleen and MLN ([3]; flow cytometry): increases | regulatory CD4+ T cells (FOXP3) in the colonic mucosa ([3]; flow cytometry): upregulated | infiltrating F4/80+ CD11b+ pro-inflammatory macrophages in the colon ([3]; flow cytometry, 11 weeks of treatment): significantly lower level | weight loss ([3]; from 7 weeks until end, vs vehicle): significantly improved | epithelial erosion in the colon ([3]; histopathology): significantly lower | inflammation: leukocytic infiltration and mucosal thickening in colon and ileum ([3]; histopathology): significantly reduced inflammation | disease activity index score ([3]; wild-type CD4+ T cells transferred, BT-11 vs vehicle): significantly reduced | fasting blood glucose (NOD mice; 12 h fasting, weeks 0-11, 80 mg/kg/d vs vehicle): significantly lower levels | clinical histopathological lesions in the pancreas (NOD mice; vs vehicle): significantly reduces | insulin levels in plasma (NOD mice; week 5): significantly increased levels | normalization of blood glucose after IP glucose challenge ([4]; 2 g/Kg glucose IP after 12 h fasting): significantly faster | F4/80+ CD11b+ pro-inflammatory macrophages in white adipose tissue ([4]; flow cytometry): significantly reduced | pro-inflammatory granulocytes (GR1+Ly6chigh) in white adipose tissue ([4]; flow cytometry): significantly reduced | expression of LANCL2 in WAT [4, 9]: higher expression levels | mRNA level of MCP-1 in WAT [4, 9]: significantly lower mRNA levels | mRNA level of TNFα in WAT [4, 9]: significantly lower mRNA levels | fasting blood glucose ([4]; week 12 of high-fat feeding, vs vehicle): significantly decreased | glucose levels following glucose challenge (db/db mice; 0 to 265 minutes after IP glucose): fell toward normal levels more rapidly | fasting blood glucose (db/db mice; 80 mg/Kg daily oral gavage, weeks 1 and 3): significantly decreased | glucose prior to the IP glucose challenge (time 0) (db/db mice; 12-h fast): significantly decreases | morbidity (mice losing over 15% of body weight) ([5]; 80 mg/Kg, from day 6 post-infection, vs vehicle): less morbidity | clinical score for physical appearance ([5]; 40 and 80 mg/Kg): significantly reduced | activity clinical score ([5]; from day 3, oral 80 or 40 mg/Kg daily): significantly reduced

O=C(Nc1ccc(NC(=O)c2cccc(-c3nc4ccccc4[nH]3)c2)cc1)c1cccc(-c2nc3ccccc3[nH]2)c1 [BT-6]
binding to LANCL2 by SPR in words (LANCL2): strongly bind | on and off rates in SPR sensorgrams (LANCL2): very fast to bind but not as fast as off

O=C1CC=C(/C=C/c2ccc(C(=O)O)o2)CC1 [BT-ABA-5a]
binding to LANCL2 by SPR in words (LANCL2): strongly bind | on and off rates in SPR sensorgrams (LANCL2): very fast to bind but not as fast as off; also recorded: slowest off rate
